Results: US20240308994A1, “ISOXAZOLE DERIVATIVE OR PHARMACEUTICALLY ACCEPTABLE SALT THEREOF AND USE THEREOF” (INDUSTRY-UNIVERSITY COOPERATION FOUNDATION HANYANG …, priority 2021, published 2024)
Where two headings read alike, the source gives them in different places.

Molecular target: T1, FMS (h) (Homo sapiens, UniProt P07333)
T1 construct: purchased Reaction Biology Corp. (Kinase HotSpot service)
Experiment: Kinase HotSpot radiometric assay, activity on CSF-1R (FMS)
Type: biochemical

[1] = Table 3, read-out: IC50 (M) on FMS

T1 sequence (P07333 20-972): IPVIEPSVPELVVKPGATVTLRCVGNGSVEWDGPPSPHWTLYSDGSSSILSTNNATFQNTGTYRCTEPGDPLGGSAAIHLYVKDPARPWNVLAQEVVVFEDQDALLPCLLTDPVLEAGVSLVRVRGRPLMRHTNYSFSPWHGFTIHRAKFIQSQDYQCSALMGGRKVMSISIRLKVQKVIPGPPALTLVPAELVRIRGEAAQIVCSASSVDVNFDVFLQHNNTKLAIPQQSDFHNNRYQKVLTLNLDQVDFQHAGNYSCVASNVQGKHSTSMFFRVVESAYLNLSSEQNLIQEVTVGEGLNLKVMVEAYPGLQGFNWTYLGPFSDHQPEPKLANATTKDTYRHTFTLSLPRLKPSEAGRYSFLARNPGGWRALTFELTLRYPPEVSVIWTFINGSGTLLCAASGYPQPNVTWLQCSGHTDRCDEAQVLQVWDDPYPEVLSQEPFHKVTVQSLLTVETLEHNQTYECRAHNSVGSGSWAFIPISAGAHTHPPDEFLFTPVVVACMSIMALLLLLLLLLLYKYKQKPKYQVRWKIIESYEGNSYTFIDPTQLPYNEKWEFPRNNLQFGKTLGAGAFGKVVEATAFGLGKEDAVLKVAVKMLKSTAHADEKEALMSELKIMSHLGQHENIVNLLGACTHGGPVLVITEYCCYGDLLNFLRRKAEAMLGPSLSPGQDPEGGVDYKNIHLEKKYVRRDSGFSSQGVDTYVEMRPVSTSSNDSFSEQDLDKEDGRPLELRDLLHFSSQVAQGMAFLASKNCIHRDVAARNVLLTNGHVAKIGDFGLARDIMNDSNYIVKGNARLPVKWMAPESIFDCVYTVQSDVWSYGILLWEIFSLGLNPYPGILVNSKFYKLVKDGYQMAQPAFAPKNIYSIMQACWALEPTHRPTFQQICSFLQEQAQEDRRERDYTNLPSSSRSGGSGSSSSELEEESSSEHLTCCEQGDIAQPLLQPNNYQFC

An IC50 [1] of over 1e-06 M was found for `Cc1cc(C(=O)Nc2cc(NC(=O)c3ccc(-c4ccccc4)cc3)ccc2C)no1` [Compound 5f, N-(5-([1,1′-biphenyl]-4-carboxamido)-2-methylphenyl)-5-methylisoxazole-3-carboxamide] in this work.
An IC50 [1] of over 1e-06 M was found for `Cc1cc(C(=O)Nc2cc(NC(=O)c3cc(N4CCN(C)CC4)cc(-n4ccnc4C)c3)ccc2C)no1` [Compound 5g, 5-methyl-N-(2-methyl-5-(3-(2-methyl-1H-imidazol-1-yl)-5-(4-methylpiperazin-1-yl)benzamido)phenyl)isoxazole-3-carboxamide] in this work.
An IC50 [1] of over 1e-06 M was found for `Cc1cc(C(=O)Nc2cc(NC(=O)c3cc(NC4CCN(C)CC4)cc(-n4ccnc4C)c3)ccc2C)no1` [Compound 5h, 5-methyl-N-(2-methyl-5-(3-(2-methyl-1H-imidazol-1-yl)-5-((1-methylpiperidin-4-yl)amino)benzamido)phenyl)isoxazole-3-carboxamide] in this work.
An IC50 [1] of over 1e-06 M was found for `Cc1cc(C(=O)Nc2cc(NC(=O)c3cc(N[C@@H]4CCCN(C)C4)cc(C(F)(F)F)c3)ccc2C)no1` [Compound 5l, (R)-5-Methyl-N-(2-methyl-5-(3-((1-methylpiperidin-3-yl)amino)-5-(trifluoromethyl)benzamido)phenyl)isoxazole-3-carboxamide] in this work.
An IC50 [1] of over 1e-06 M was found for `Cc1cc(C(=O)Nc2cc(NC(=O)c3cc(N4CCC([N+](C)(C)C)C4)cc(C(F)(F)F)c3)ccc2C)no1` (centres unmarked) [Compound 5m, N,N,N-trimethyl-1-(3-((4-methyl-3-(5-methylisoxazole-3-carboxamido)phenyl)carbamoyl)-5-(trifluoromethyl)phenyl)pyrrolidin-3-aminium] in this work.
An IC50 [1] of over 1e-06 M was found for `Cc1cc(C(=O)Nc2cc(NC(=O)c3ccc4ccccc4n3)ccc2C)no1` [Compound 5q, 5-methyl-N-(2-methyl-5-(quinoline-2-carboxamido)phenyl)isoxazole-3-carboxamide] in this work.
An IC50 [1] of over 1e-06 M was found for `Cc1cc(C(=O)Nc2cc(NC(=O)c3ccc4nn[nH]c4c3)ccc2C)no1` [Compound 5r, N-(5-(1H-benzo[d][1,2,3]triazole-6-carboxamido)-2-methylphenyl)-5-methylisoxazole-3-carboxamide] in this work.
An IC50 [1] of over 1e-06 M was found for `Cc1cc(C(=O)Nc2cc(NC(=O)c3cnn(-c4ccccc4)c3C(F)(F)F)ccc2C)no1` [Compound 5s, 5-methyl-N-(2-methyl-5-(1-phenyl-5-(trifluoromethyl)-1H-pyrazole-4-carboxamido)phenyl)isoxazole-3-carboxamide] in this work.
An IC50 [1] of over 1e-06 M was found for `Cc1cc(C(=O)Nc2cc(NC(=O)c3ccc4cn[nH]c4c3)ccc2C)no1` [Compound 5t, N-(5-(1H-indazole-6-carboxamido)-2-methylphenyl)-5-methylisoxazole-3-carboxamide] in this work.
An IC50 [1] of under 1e-07 M was found for `Cc1cc(C(=O)Nc2ccc(NC3CCOCC3)nc2C)no1` [Compound 17b, 5-methyl-N-(2-methyl-6-((tetrahydro-2H-pyran-4-yl)amino)pyridin-3-yl)isoxazole-3-carboxamide] in this work.
An IC50 (Table 1, read-out: IC50) of 1e-07 to 1e-06 M and an IC50 [1] of 1e-07 to 1e-06 M were found for `Cc1cc(C(=O)Nc2ccc(C3CCNC3)cc2C2=CCCCC2)no1` (centres unmarked) [Compound 60a, 5-methyl-N-(5-(pyrrolidin-3-yl)-2′,3′,4′,5′-tetrahydro-[1,1′-biphenyl]-2-yl)isoxazole-3-carboxamide] in this work.
An IC50 (Table 1, read-out: IC50) of under 1e-07 M and an IC50 [1] of under 1e-07 M were found for `Cc1cc(C(=O)Nc2ccc(C3CCNCC3)cc2C2=CCCCC2)no1` [Compound 60b, 5-methyl-N-(5-(piperidin-4-yl)-2′,3′,4′,5′-tetrahydro-[1,1′-biphenyl]-2-yl)isoxazole-3-carboxamide] in this work.
An IC50 (Table 1, read-out: IC50) of under 1e-07 M and an IC50 [1] of under 1e-07 M were found for `Cc1cc(C(=O)Nc2ccc(C3CCCNCC3)cc2C2=CCCCC2)no1` (centres unmarked) [Compound 60c, N-(5-(azepan-4-yl)-2′,3′,4′,5′-tetrahydro-[1,1′-biphenyl]-2-yl)-5-methylisoxazole-3-carboxamide] in this work.
An IC50 (Table 1, read-out: IC50) of over 1e-06 M and an IC50 [1] of over 1e-06 M were found for `Cc1cc(C(=O)Nc2ccc(C3CCNCC3)cc2C2=CCCC2)no1` [Compound 61b, N-(2-(Cyclopent-1-en-1-yl)-4-(piperidin-4-yl)phenyl)-5-methylisoxazole-3-carboxamide] in this work.
An IC50 (Table 1, read-out: IC50) of over 1e-06 M and an IC50 [1] of over 1e-06 M were found for `Cc1cc(C(=O)Nc2ccc(C3CCNCC3)cc2-c2cncnc2)no1` [Compound 62b, 5-methyl-N-(4-(piperidin-4-yl)-2-(pyrimidin-5-yl)phenyl)isoxazole-3-carboxamide] in this work.
An IC50 (Table 1, read-out: IC50) of under 1e-07 M and an IC50 [1] of under 1e-07 M were found for `Cc1cc(C(=O)Nc2ccc(C3CCNCC3)cc2C2=CCC(C)CC2)no1` (centres unmarked) [Compound 63b, 5-Methyl-N-(4′-methyl-5-(piperidin-4-yl)-2′,3′,4′,5′-tetrahydro-[1,1′-biphenyl]-2-yl)isoxazole-3-carboxamide] in this work.
An IC50 (Table 1, read-out: IC50) of under 1e-07 M and an IC50 [1] of under 1e-07 M were found for `Cc1cc(C(=O)Nc2ccc(C3CCNCC3)cc2C2=CCC(C)(C)CC2)no1` [Compound 64b, N-(4′,4′-dimethyl-5-(piperidin-4-yl)-2′,3′,4′,5′-tetrahydro-[1,1′-biphenyl]-2-yl)-5-methylisoxazole-3-carboxamide] in this work.
An IC50 (Table 1, read-out: IC50) of under 1e-07 M and an IC50 [1] of under 1e-07 M were found for `Cc1cc(C(=O)Nc2ccc(C3CCCNCC3)cc2C2=CCC(C)(C)CC2)no1` (centres unmarked) [Compound 64c, N-(5-(azepan-4-yl)-4′,4′-dimethyl-2′,3′,4′,5′-tetrahydro-[1,1′-biphenyl]-2-yl)-5-methylisoxazole-3-carboxamide] in this work.
An IC50 (Table 1, read-out: IC50) of over 1e-06 M and an IC50 [1] of over 1e-06 M were found for `Cc1cc(C(=O)Nc2ccc(C3CCNCC3)cc2C2CCCCC2)no1` [Compound 65b, N-(2-cyclohexyl-4-(piperidin-4-yl)phenyl)-5-methylisoxazole-3-carboxamide] in this work.
An IC50 (Table 1, read-out: IC50) of over 1e-06 M and an IC50 [1] of over 1e-06 M were found for `Cc1cc(C(=O)Nc2ccc(C3CCNCC3)cc2C2CCCC2)no1` [Compound 66b, N-(2-Cyclopentyl-4-(piperidin-4-yl)phenyl)-5-methylisoxazole-3-carboxamide] in this work.
An IC50 (Table 1, read-out: IC50) of under 1e-07 M and an IC50 [1] of under 1e-07 M were found for `Cc1cc(C(=O)Nc2ccc(C3CCN(C)CC3)cc2C2=CCCCC2)no1` [Compound 67b, 5-methyl-N-(5-(1-methylpiperidin-4-yl)-2′,3′,4′,5′-tetrahydro-[1,1′-biphenyl]-2-yl)isoxazole-3-carboxamide] in this work.
An IC50 (Table 1, read-out: IC50) of 1e-07 to 1e-06 M and an IC50 [1] of 1e-07 to 1e-06 M were found for `Cc1cc(C(=O)Nc2ccc(C3CCCN(C)CC3)cc2C2=CCCCC2)no1` (centres unmarked) [Compound 67c, 5-methyl-N-(5-(1-methylazepan-4-yl)-2′,3′,4′,5′-tetrahydro-[1,1′-biphenyl]-2-yl)isoxazole-3-carboxamide] in this work.
An IC50 (Table 1, read-out: IC50) of under 1e-07 M and an IC50 [1] of under 1e-07 M were found for `Cc1cc(C(=O)Nc2ccc(C3CCCN(C)CC3)cc2C2=CCC(C)(C)CC2)no1` (centres unmarked) [Compound 68c] in this work.
An IC50 (Table 1, read-out: IC50) of over 1e-06 M and an IC50 [1] of over 1e-06 M were found for `Cc1cc(C(=O)Nc2ccc(C3CCN(C)CC3)cc2C2CCCCC2)no1` [Compound 69b, N-(2-cyclohexyl-4-(1-methylpiperidin-4-yl)phenyl)-5-methylisoxazole-3-carboxamide] in this work.
An IC50 [1] of under 1e-07 M was found for `CCN1CCC(c2ccc(NC(=O)c3cc(C)on3)c(C3=CCCCC3)c2)CC1` [Compound 70b, N-(5-(1-ethylpiperidin-4-yl)-2′,3′,4′,5′-tetrahydro-[1,1′-biphenyl]-2-yl)-5-methylisoxazole-3-carboxamide] in this work.
An IC50 (Table 1, read-out: IC50) of over 1e-06 M and an IC50 [1] of over 1e-06 M were found for `CCN1CCC(c2ccc(NC(=O)c3cc(C)on3)c(C3=CCCC3)c2)CC1` [Compound 71b, N-(2-(Cyclopent-1-en-1-yl)-4-(1-ethylpiperidin-4-yl)phenyl)-5-methylisoxazole-3-carboxamide] in this work.
